Results taken from patent US20060004095A1, “Use of acetyl L-carnitine for the preparation of a medicine for the treatment of neuropathic pain in diabetic patients” (priority 2004, published 2006).

Key:
[1] = system: patients with type 2 diabetes not on insulin treatment; experiment: Double-blind placebo-controlled clinical trials in diabetic peripheral neuropathy, VAS pain assessment; population not on insulin; type: in vivo, human; conditions: active only at the higher dose (3 g/day)
Experimental: (§1) Two double-blind placebo-controlled clinical trials, identical in their experimental design, were conducted in patients with diagnoses of diabetic peripheral neuropathy selected according to the criteria established in the San Antonio, Tex. conference (Diabetes 37:1000-1004, 1988).
(§2) Acetyl L-carnitine was administered orally at doses of 1.5 g/day and 3.0 g/day for continuously for 52 weeks.
(§3) One objective of the studies consisted in the possible modification of the Visual Analogue Scale (VAS) (Scott J. Huskisson EC. Graphic representation of pain. Pain 1976;2:175-184) in the subjective assessment of pain symptoms and the main sensorimotor clinical parameters.

[2] = system: patients with type 2 diabetes on insulin treatment; experiment: Double-blind placebo-controlled clinical trials in diabetic peripheral neuropathy, VAS pain assessment; population on insulin; type: in vivo, human; conditions: even at the higher dose
Experimental: as §1, §2, §3
The second population comprised patients with type 2 diabetes treated with insulin. Here, too, the population included a placebo group (Group 4) matching up to the same inclusion criteria as the patients treated with acetyl L-carnitine (on insulin treatment).

[3] = system: type I and II diabetics with symmetrical distal polyneuropathy or multineuropathy; conditions: patients treated with acetyl L-carnitine out of 333 recruited; cited from earlier work

SMILES: CC(=O)O[C@H](CC(=O)[O-])C[N+](C)(C)C [Acetyl L-carnitine, acetyl L-carnitine]
- activity compared to the placebo group at the end of treatment [1]: active in a dose-related manner
- activity compared to the control group [2]: no statistically significant difference in activity
- patients presenting an improvement in pain symptoms [3]: 39%
